Source: patent US7893066B2, “Pyridol[2,3-B]pyrazinones for use as stearoyl CoA desaturase inhibitors” (Gilead Palo Alto, Inc., priority 2006, dated 2011)

Target: T1, stearoyl-CoA desaturase (SCD) (Rattus norvegicus, UniProt P07308)
T1 construct: from tissue; host or cells: liver microsomes of male Sprague Dawley rats, with SCD induced by a carbohydrate-rich diet
T1 sequence (P07308 1-358): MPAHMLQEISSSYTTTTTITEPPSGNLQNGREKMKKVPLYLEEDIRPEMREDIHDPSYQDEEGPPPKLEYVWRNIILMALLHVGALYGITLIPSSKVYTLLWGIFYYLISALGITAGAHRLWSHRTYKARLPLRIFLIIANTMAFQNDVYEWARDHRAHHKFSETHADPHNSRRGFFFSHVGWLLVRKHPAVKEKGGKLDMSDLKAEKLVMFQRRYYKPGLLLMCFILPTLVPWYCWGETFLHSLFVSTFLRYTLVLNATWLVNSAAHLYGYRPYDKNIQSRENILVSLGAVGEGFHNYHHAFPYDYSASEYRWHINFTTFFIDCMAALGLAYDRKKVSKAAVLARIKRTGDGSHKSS
Experiment: SCD assay, rat liver microsomes with [3H]stearoyl CoA (adapted from Talamo and Bloch)
Format: biochemical
Conditions: second table, same SCD assay
From the text: The identification of compounds of the invention as SCD inhibitors was readily accomplished using the SCD enzyme and microsomal assay procedure described in Talamo and Bloch (1969) Analytical Biochemistry 29:300-304.
The rat liver microsomes were collected according to the procedure described in Ozols (1990) Methods Enzm, 182:225.
Male Spraque Dawley Rats were placed on regimented fasting protocol for one week to stimulate SCD enzymatic activity. 48-hour periods were alternated between feeding and fasting to induce and down-regulate SCD activity with SCD activity being induced via carbohydrate rich diet prior to liver perfusion and collection.
The rats were anesthetized with Isoflurane inhalation anesthetic, the liver perfused with cold phosphate buffered saline (PBS), weighed, and chilled in cold homogenization buffer (250 mM sucrose, 10 mM Tris, 1 mM EDTA, pH 7.6.
The livers were finely minced and placed in homogenization tube. 40 mL of homogenization buffer was added to the homogenization tube and the liver homogenized and centrifuged in a pre-chilled SLA-600 TC at 800G rotor for 10 min at 4° C.
Following centrifugation, the supernatant was collected and the pellet removed and discarded. This supernatant was then centrifuged at 10,000G for 35 minutes. Following centrifugation, the supernatant was collected and the pellet discarded. The supernatant was further centrifuged in a pre-chilled 45-Ti rotor at 130,000 G (41,000 RPM) for 90 minutes at 4° C.
The supernatant was then aspirated off and the collected microsomal pellet washed in 25 mL of Glycerol PBS (1×PBS 7.4, 20% Glycerol) and resuspended in 4-5 volumes of Glycerol PBS.
The protein concentration of the microsomal preparation was determined by BCA assay (Pierce) and the microsomes were aliquoted and stored at −80° C.
Biobeads were ground to a smaller size in a mortar and pestle and filtered through 300 μM mesh and then resuspended in 3.6% TCA.
SCD was determined in the desaturase assay buffer. This assay buffer contained 0.1 M Tris buffer, pH 7.2, 2 mM NADH, 4.8 mM ATP, 0.5 mM CoA, 4.8 mM MgCl2, and 0.1% BSA.
1 μl of each compound of Formula I was added to an assay plate by a low volume (0.5-10 μL) multichannel pipette. A DMSO control was also prepared. The microsomes were quickly thawed and added to assay buffer so that a concentration of 1-0.1 mg/ml was achieved (0.5-0.05 mg/ml assay final). 50 μl of the microsome suspension in assay buffer was then added into each well in the compound assay plate, the plate was covered, and the microsomes preincubated with the compounds for 30-60 minutes on the orbital shaker, 50-75 rpm, at room temperature.
After preincubation, the reaction was initiated by the addition of 50 μl of substrate solution (20 μM Stearoyl CoA, [3H]Stearoyl CoA, 74nCi) to the preincubated microsomes/compound suspensions in MilliQ (Millipore) H2O. The reaction mixtures were then incubated for 45 minutes on the orbital shaker at 50-75 rpm at room temperature.
The reaction was terminated by the addition of 10 μl of 21% trichloroacetic acid (TCA) to the reaction mixture followed incubation on the orbital shaker for 30 minutes at 50-75 rpm at room temperature followed by centrifugation for 5 minutes at 3700 rpm.
50 μl of a 6% Bio-Bead suspension in H2O was added to the reaction mixture and the assay plate was sealed. The Bio-Bead mixture was incubated on the orbital shaker for 1 to 24 hours, 100-150 rpm at room temperature, and then the mixture was centrifuged at 2000g for 5 minutes to pellet the Bio-Beads.
25 μl of the supernatant was harvested from each well and transferred to a detection plate. 100 μl of OptiPhase SuperMix scinitillation cocktail (containing sufficient NaOH to neutralize the TCA) was added and the solutions mixed by vigorous shaking (300-400 rpm) for 5 minutes at room temperature.

Compound | IC50 [nM]
COc1ccc(-c2nc3ccc(NCc4ccc(Cl)c(C(F)(F)F)c4)cc3n(CCNC(C)=O)c2=O)cc1 [compound 62, N-(2-(7-(4-chloro-3-(trifluoromethyl)benzylamino)-3-(4-methoxyphenyl)-2-oxoquinoxalin-1(2H)-yl)ethyl)acetamide;] | 6
CC(=O)NCCn1c(=O)cnc2ccc(NCc3cccc(C(F)(F)F)c3)nc21 [compound 7, N-(2-(3-oxo-6-(3-(trifluoromethyl)benzylamino)pyrido[2,3-b]pyrazin-4(3H)-yl)ethyl)acetamide] | 220
N-(2-(6-(3-methoxybenzylamino)-2-(4-methoxyphenyl)-3-oxopyrido[2,3-b]pyrazin-4(3H)-yl)ethyl)acetamide [compound 13] | 760
CCc1ccc(-c2nc3ccc(NCc4cccc(C(F)(F)F)c4)nc3n(CCNC(C)=O)c2=O)cc1 [compound 27, N-(2-(2-(4-ethylphenyl)-3-oxo-6-(3-(trifluoromethyl)benzylamino)pyrido[2,3-b]pyrazin-4(3H)-yl)ethyl)acetamide] | 93
CC(=O)NCCn1c(=O)c(C)nc2cc(NCc3ccccc3)cnc21 [compound 43, N-(2-(7-(benzylamino)-2-methyl-3-oxopyrido[2,3-b]pyrazin-4(3H)-yl)ethyl)acetamide] | 1100
CC(=O)NCCn1c(=O)c(-c2ccc(F)cc2)nc2ccc(NCc3cccc(C(F)(F)F)c3)nc21 [compound 28, N-(2-(2-(4-fluorophenyl)-3-oxo-6-(3-(trifluoromethyl)benzylamino)pyrido[2,3-b]pyrazin-4(3H)-yl)ethyl)acetamide] | 390
COc1ccc(-c2nc3ccc(NCCc4cccc(Cl)c4)cc3n(CCNC(C)=O)c2=O)cc1 [compound 54, N-(2-(7-(3-chlorophenethylamino)-3-(4-methoxyphenyl)-2-oxoquinoxalin-1(2H)-yl)ethyl)acetamide] | 100
COc1ccc(-c2nc3ccc(NCc4ccccc4)nc3n(CCNC(C)=O)c2=O)cc1 [compound 8, N-(2-(6-(benzylamino)-2-(4-methoxyphenyl)-3-oxopyrido[2,3-b]pyrazin-4(3H)-yl)ethyl)acetamide] | 840
COc1ccc(-c2nc3ccc(NCc4cc(C(F)(F)F)ccc4F)nc3n(CCNC(C)=O)c2=O)cc1 [compound 21, N-(2-(6-(2-fluoro-5-(trifluoromethyl)benzylamino)-2-(4-methoxyphenyl)-3-oxopyrido[2,3-b]pyrazin-4(3H)-yl)ethyl)acetamide] | 1500
3-(2-(4-methoxyphenyl)-3-oxo-6-(3-(trifluoromethyl)benzylamino)pyrido[2,3-b]pyrazin-4(3H)-yl)propanamide [compound 6] | 35
(S)-3-(2-(4-methoxyphenyl)-3-oxo-6-(3-(trifluoromethyl)benzylamino)pyrido[2,3-b]pyrazin-4(3H)-yl)butanamide [compound 39] | 19000
COC(=O)c1cccc(CNc2ccc3nc(-c4ccc(OC)cc4)c(=O)n(CCNC(C)=O)c3n2)c1 [compound 15, methyl 3-((4-(2-acetamidoethyl)-2-(4-methoxyphenyl)-3-oxo-3,4-dihydropyrido[2,3-b]pyrazin-6-ylamino)methyl)benzoate] | 19000
COc1ccc(-c2nc3ccc(NCc4cccnc4)nc3n(CCNC(C)=O)c2=O)cc1 [compound 9, N-(2-(2-(4-methoxyphenyl)-3-oxo-6-(pyridin-3-ylmethylamino)pyrido[2,3-b]pyrazin-4(3H)-yl)ethyl)acetamide] | 30000
COc1ccc(-c2nc3ccc(NCc4cccc(C(F)(F)F)c4)nc3n(NC(=O)COC(C)=O)c2=O)cc1 [compound 45, 2-(2-(4-methoxyphenyl)-3-oxo-6-(3-(trifluoromethyl)benzylamino)pyrido[2,3-b]pyrazin-4(3H)-ylamino)-2-oxoethyl acetate] | 6700
COc1ccc(-c2nc3ccc(NCc4cccc(F)c4)nc3n(CCNC(C)=O)c2=O)cc1 [compound 10, N-(2-(6-(3-fluorobenzylamino)-2-(4-methoxyphenyl)-3-oxopyrido[2,3-b]pyrazin-4(3H)-yl)ethyl)acetamide] | 18000
N-(2-(3-methyl-2-oxo-7-(3-(trifluoromethyl)benzylamino)quinoxalin-1(2H)-yl)ethyl)thiophene-3-carboxamide [compound 51] | 2.6
(±)-2,3-dihydroxy-N-(2-(3-methyl-2-oxo-7-(3-(trifluoromethyl)benzylamino)-quinoxalin-1(2H)-yl)ethyl)-propanamide [compound 59] | 360
COCCOc1ccc(-c2nc3ccc(NCc4cccc(C(F)(F)F)c4)nc3n(CCNC(C)=O)c2=O)cc1 [compound 23, N-(2-(2-(4-(2-methoxyethoxy)phenyl)-3-oxo-6-(3-(trifluoromethyl)benzylamino)pyrido[2,3-b]pyrazin-4(3H)-yl)ethyl)acetamide] | 230
Cc1nc2ccc(NCc3cccc(C(F)(F)F)c3)nc2n(CCCC(N)=O)c1=O [compound 36, 4-(2-methyl-3-oxo-6-(3-(trifluoromethyl)benzylamino)pyrido[2,3-b]pyrazin-4(3H)-yl)butanamide] | 1600
CCCc1ccc(-c2nc3ccc(NCc4cccc(C(F)(F)F)c4)nc3n(CCNC(C)=O)c2=O)cc1 [compound 24, N-(2-(3-oxo-2-(4-propylphenyl)-6-(3-(trifluoromethyl)benzylamino)pyrido[2,3-b]pyrazin-4(3H)-yl)ethyl)acetamide] | 100
COc1ccc(-c2nc3ccc(NCc4cccc(C(F)(F)F)n4)nc3n(CCNC(C)=O)c2=O)cc1 [compound 3, N-(2-(2-(4-methoxyphenyl)-3-oxo-6-((6-(trifluoromethyl)pyridin-2-yl)methylamino)pyrido[2,3-b]pyrazin-4(3H)-yl)ethyl)acetamide] | 10000
3-(6-(3,4-dichlorobenzylamino)-2-(4-methoxyphenyl)-3-oxopyrido[2,3-b]pyrazin-4(3H)-yl)-N-methylpropanamide [compound 12] | 95
3-(2-(4-(2-methoxyethoxy)phenyl)-3-oxo-6-(3-(trifluoromethyl)benzylamino)pyrido[2,3-b]pyrazin-4(3H)-yl)propanamide [compound 30] | 190
COc1ccc(-c2nc3ccc(NCc4ccc(Cl)c(Cl)c4)nc3n(CCNC(=O)CN)c2=O)cc1 [compound 40, 2-amino-N-(2-(6-(3,4-dichlorobenzylamino)-2-(4-methoxyphenyl)-3-oxopyrido[2,3-b]pyrazin-4(3H)-yl)ethyl)acetamide] | 1900
COc1ccc(-c2nc3ccc(NCc4ccc(Cl)c(Cl)c4)nc3n(CCCC(N)=O)c2=O)cc1 [compound 11, 4-(6-(3,4-dichlorobenzylamino)-2-(4-methoxyphenyl)-3-oxopyrido[2,3-b]pyrazin-4(3H)-yl)butanamide] | 150
COc1ccc(-c2nc3ccc(NCc4ccc(C)c(C)c4)cc3n(CCNC(C)=O)c2=O)cc1 [compound 57, N-(2-(7-(3,4-dimethylbenzylamino)-3-(4-methoxyphenyl)-2-oxoquinoxalin-1(2H)-yl)ethyl)acetamide] | 26
benzyl 1-(2-acetamidoethyl)-3-(3,4-dichlorophenyl)-2-oxo-1,2-dihydroquinoxalin-6-ylcarbamate [compound 47] | 2300
